In brackets after ≈: the same amount, converted by molar mass.
What was measured:
HCT116 = assay: MTT cell proliferation assay, HCT116; format: cell-based, human; conditions: Homo sapiens, HCT-116, HCT116 colon cancer, 48 h
Description: (§1) The effects of the synthesized amide anthraquinone derivatives on the proliferative activity of eight human cancerous cell lines (EC9706, MCF-7, SGC-7901, HepG2, QBC939, HeLa, HCT116 and SW480) in addition to two normal human cell lines (colorectal FHC and liver HL7702) were evaluated using the standard MTT assay.
(§2) The human esophageal cancer cell line EC9706 was obtained from Cancer Hospital and Institute by Prof. Ming Rong Wang, Chinese Academy Medical of Sciences. The human colorectal carcinoma cell lines HCT116 and SW480, hepatoma cell line HepG2, cervical carcinoma cell line HeLa, breast cancer cell line MCF-7, gastric cancer cell line SGC-7901, cholangiocarcinoma cell line QBC939, normal fetal colon cell line FHC and liver cell line HL-7702 were obtained from the Cell Bank of the Shanghai Chinese Academy of Sciences. All cells were cultured in RPMI 1640 medium containing 100 U/mL penicillin and streptomycin and 10% fetal bovine serum and maintained at 37°C under a 5% CO2 atmosphere.
(§3) We analyzed the inhibitory effects of eight anthraquinone-amino acid derivatives on the proliferation of eight tumor cell lines and two normal cell lines in vitro using MTT assays. Cells were added to a 96-well plate with (5,000 cells per well in 100 µL RPMI-1640 medium). Cells were treated with different concentrations (10–100 μg/mL) of 8a–8h for 48 h and then incubated with 20 μL MTT (5 mg/mL) for another 4 h at 37°C. DMSO (150 μL) was then added to each well to dissolve the formazan crystals. The absorbance of each well was read at 490 nm on a microtiter plate ELISA reader. The mean values were obtained from a minimum of three parallel experiments. IC50 values were calculated.

SGC-7901 = assay: MTT cell proliferation assay, SGC-7901; format: cell-based, human; conditions: Homo sapiens, SGC-7901, 48 h, SGC-7901 gastric cancer, read-out: IC50
Description: as §1, §2, §3

SW480 = assay: MTT cell proliferation assay, SW480; format: cell-based; conditions: Homo sapiens, SW480 colon cancer, 48 h
Description: as §1, §2, §3

FHC = assay: MTT cell proliferation assay, normal colorectal cells FHC; format: cell-based; conditions: FHC normal human colorectal mucosa, 48 h
Description: as §1, §2, §3

HCT116 cells = assay: MTT cell viability with or without SP600125; format: cell-based, human; conditions: 8a alone, 24 h, compared with the control
Description: Furthermore, to further investigate whether activation of phosphorylated JNK affects cell viability, HCT116 was co-treated with 8a and SP600125 (JNK inhibitor), and the effect of phosphorylated JNK inactivation on HCT116 cell activity was examined by MTT. […] Following co-treatment with 8a and SP600126, the rate cell viability was 55%. The inhibitory proliferation activty of 8a were partially weakened by the usage of 5 μM Sp600125.
Figure 9 The effect of 8a treatment on phosphorylated JNK and JNK expression levels. (A) Western blot analysis of phosphorylated JNK and JNK expression levels of in HCT116 cells treated with 20 μg/mL 8a for time-periods; (B) The expression levels of the phospho-JNK proteins were determined after treatment of HCT116 cells with 20 μg/mL 8a with or without NAC. Data represent the mean ± standard deviation of three independent experiments; (C) Grayscale analysis of the relative protein level of phosphorylated JNK. Data represent the mean ± standard deviation of three independent experiments. * p < 0.05; (D) MTT assay of HCT116 cells viability following treatment with 8a and SP600125 for 24 h.

[1] = tested on: intracellular ROS in HCT116 cells; assay: Detection of ROS by DCFH-DA, flow cytometry; format: cell-based, human; conditions: compared to DMSO-treated control
Description: Intracellular ROS are key factors in the activation of many signaling pathways, involved in a variety of biological functions including apoptosis and necrosis. High levels of ROS are capable of inducing tumor cell apoptosis. We evaluated the ability of the compounds to induce ROS by flow cytometric analysis of the fluorescent probe DCFH-DA. […] Next, we investigated ROS production before and after induction with 8a and NAC (N-acetyl-L-cysteine).
Cells were added to a 6-well plate (1 × 10^4/well) and incubated for 24 h to allow adherence. Set 0.1% DMSO as the control group, 8a as the treatment group, NAC as the treatment group, 8a + NAC as the treatment group. Among them, in the 8a + NAC treatment group, 8a was added after 5 mM NAC treatment for 1 h. Cells that had been treated for 24 h were collected. The cells were then washed three times with PBS and incubated with 10 μM DCFH-DA for 30 min in the dark. ROS levels were analyzed by flow cytometry.

[2] = tested on: caspase 9, cleaved caspase 9, caspase 3, cleaved caspase 3; assay: Western blot, caspases; format: cell-based, human; conditions: HCT116, western blot
Text: Caspases represent a key molecular group in the regulation of apoptosis. In caspases, there is an upstream and downstream relationship between the initiator of apoptosis and executioner. Caspase 3 is one of the key executers of apoptosis, as it is either partially or totally responsible for the proteolytic cleavage of many key proteins. For example, when caspase 9 is activated, it activates caspase 3, which ultimately triggers cell apoptosis. After detecting the expression of the corresponding Bcl-2 family proteins after 8a treatment by western blotting, we went on to detect the expression levels of PARP, caspase 9, cleaved caspase 9, caspase 3, and cleaved caspase 3 proteins. […] After 24 h of treatment with zVAD-FMK, cell viability is 93%.
The expression of signaling pathway-related proteins was detected by western blot analysis. Cell (1 × 10^6) were plated in 90-mm dishes and treated with 8a for 24 h. The cells were treated with NAC in the same way as in step 4.7. Resuspend the cells in Buffer A (1 mM EDTA, 1 mM PMSF, 0.28 μg/mL apotinin, 50 μg/mL leupeptin, 7 μg/mL pepstain A) and transferred to a 1 mL glass homogenizer and pull up and down 30 times in an ice bath. Cells were collected and centrifuged (1000 g × 10 min, 4 °C). […] Protein concentrations in the supernatant were determined by using a Minbio BCA protein assay kit. […]

With `CC(C)CC(NC(=O)c1ccc2c(c1[N+](=O)[O-])C(=O)c1ccccc1C2=O)C(=O)O` (centres unmarked) [Compound 8a, N-[(9,10-dihydro-1-nitro-9,10-dioxo-2-anthracenyl)carbonyl-leucine]] the IC50 (HCT116) was 17.8 ± 0.03 µg/mL (≈ 43.4 µM), the IC50 (SGC-7901) was 55.82 ± 0.16 µg/mL (≈ 136 µM) and the IC50 (SW480) was 31.09 ± 0.1 µg/mL (≈ 75.8 µM). For the same compound, the IC50 (FHC) was over 1000 µg/mL, the cell viability (HCT116 cells) was 39% and the “ROS levels (in words)” value [1] was “increase ROS levels in a dose-dependent manner”. The “expression of cleaved caspase 9 and cleaved caspase 3” value [2] was “increased in a dose-dependent manner” and the “caspase 9 and caspase 3 expression levels” value ([2]; with increasing 8a concentration) was “gradually decreased”.

Source: PMC7180728, “Novel Anthraquinone Compounds Inhibit Colon Cancer Cell Proliferation via the Reactive Oxygen Species/JNK Pathway” (Molecules, 2020)
